Patent US20220380342A1, “BIPHENYL DERIVATIVES FOR BLOCKING PD-1/PD-L1 INTERACTION, PREPARATION METHOD THEREFOR AND USE THEREOF” (Abbisko Therapeutics Co., Ltd., priority 2019, published 2022)

Experiments:
[1] = molecular target: T1, interaction between PD-1 and PD-L1 expressed on cell surfaces (Jurkat/NF-κB-luc/PD1 cells cocultured with Raji-PD-L1 cells) (Homo sapiens, UniProt Q9NZQ7); test: Jurkat reporter gene cellular assay; format: cell-based; settings: OKT3 1 μg/mL stimulation, 6 hrs, activation fold vs DMSO
T1 construct: expressed in transfected cells; host or cells: Raji cells (PD-L1); Jurkat cells (PD-1, NF-κB-luc reporter)
Experimental: The effect of compounds of the examples of the present invention on the interaction between PD-1 and PD-L1 expressed on cell surfaces, and the related influence on T cell functions, were determined by a Jurkat reporter gene cellular assay.
Briefly, the reporter gene plasmid of NF-κB-luc and the plasmid of human PD-1 were transfected into Jurkat cells to establish a stably transfected cell line capable of stably expressing both PD-1 and NF-κB-Luc reporter genes; the expression level of PD-1 on the cell surface was confirmed by flow cytometry; and the expression of the reporter gene was confirmed via the response of the reporter gene stimulated by OKT-3 and Raji cells.
In addition, the plasmid of human PD-L1 was transfected into Raji cells to obtain a cell line capable of stably expressing PD-L1. Jurkat/NF-κB-luc/PD1 cells and Raji-PD-L1 cells were then cocultured and stimulated with OKT-3. On this basis, the compounds were added, and the enhancement of the signal pathway of T cell activation by the inhibitory effect of the compounds on the interaction between PD-1 and PD-L1 was evaluated by readings of reporter gene responses. The specific experimental process was as follows:
1) 30 μL of compound or antibody solution was added to each well of a white 96-well plate (Corning, 3610) at different diluted concentrations, and 10 μL of OKT3 (Biolegend, 317326) was then added (the final concentration of OKT3: 1 μg/mL);
2) 20 μL of Raji-PD-L1 cell suspension was added to each well with 5*10^4 cells for each well, and was incubated in an incubator for 20 min;
3) 20 μL of Jurkat/NF-Kb-luc/PD-1 cell suspension was added to each well with 5*10^4 cells for each well, and was well mixed, and 6 hrs later, Bright-glo (Promega, E2620) was applied and plates were read on Envision;
4) The reading of each well treated with the compound was compared with the reading of each well treated with DMSO to obtain the activation fold of the compound; and
5) EC50 values of compounds of the examples of the present invention were determined by non-linear regression analysis of activation folds at different compound concentrations.

[2] = molecular target: T2, interaction between PD-1 and PD-L1 (Homo sapiens, UniProt Q9NZQ7); test: PD1-PDL1 HTRF binding activity test; settings: Cisbio PD-1/PD-L1 binding assay kit; percent inhibition vs DMSO
T2 construct: purchased Cisbio 64ICP01PEG or 64ICP01PEH
Experimental: The effect of compounds of the examples of the present invention on the interaction between PD-1 and PD-L1 was determined by the PD-1/PD-L1 binding assay kit from Cisbio (#64ICP01PEG or 64ICP01PEH). The detailed experimental process was as follows:
1) Pre-diluted compound solution, 4 μL of Tag1-PD-L1 and 4 μL of Tag2-PD1 were added to each well of a 384-well plate;
2) After the mixture was incubated at room temperature for 15 min, 5 μL of anti-Tag1-Eu3+ antibody and 5 μL of anti-Tag2-XL665 antibody were then added;
3) After incubated for 2 hrs at room temperature or overnight at 4° C., plates were read on Envision of Perkin Elmer; and readings at 665 nm and 620 nm were recorded, and the ratio of the two readings was taken as a reading for each well;
4) The reading of each well after compound treatment was compared with the reading of DMSO treated wells to obtain the percent inhibition of the compound; and
5) IC50 values of compounds of the examples of the present invention were determined by non-linear regression analysis of percent inhibition at different compound concentrations.

T1 sequence (Q9NZQ7 19-290): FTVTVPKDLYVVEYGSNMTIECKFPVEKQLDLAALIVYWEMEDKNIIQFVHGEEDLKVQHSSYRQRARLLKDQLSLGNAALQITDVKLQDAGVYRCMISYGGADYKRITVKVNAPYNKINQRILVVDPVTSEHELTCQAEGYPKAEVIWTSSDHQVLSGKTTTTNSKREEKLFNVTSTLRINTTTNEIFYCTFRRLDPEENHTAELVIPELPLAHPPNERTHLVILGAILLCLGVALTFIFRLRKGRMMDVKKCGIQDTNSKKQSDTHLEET
T2 sequence (Q9NZQ7 19-238 limits assumed): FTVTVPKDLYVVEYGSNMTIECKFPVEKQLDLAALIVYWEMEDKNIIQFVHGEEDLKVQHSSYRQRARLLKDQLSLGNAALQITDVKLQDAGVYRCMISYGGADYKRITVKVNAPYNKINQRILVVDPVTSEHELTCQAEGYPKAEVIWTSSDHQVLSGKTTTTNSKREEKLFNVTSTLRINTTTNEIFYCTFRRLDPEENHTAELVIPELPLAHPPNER

| Compound | EC50 [1] [nM] | IC50 [2] [nM] |
| --- | --- | --- |
| Cc1c(NC(=O)c2cc(C3CC3)c(CN[C@H]3CCC[C@@H]3O)cn2)cccc1-c1cccc(NC(=O)c2cc(C3CC3)c(CN[C@H](CO)C(=O)O)cn2)c1C [Example 40, ((4-cyclopropyl-6-((3′-(4-cyclopropyl-5-((((1S,2S)-2-hydroxycyclopentyl)amino)methyl)picolinamido)-2,2′-dimethyl-[1,1′-biphenyl]-3-yl)carbamoyl)pyridin-3-yl)methyl)-D-serine] | 39.2 | 1.68 |
| Cc1c(NC(=O)c2cc(C3CC3)c(CNC3CCOCC3)cn2)cccc1-c1cccc(NC(=O)c2cc(C3CC3)c(CN3CCCC[C@H]3C(=O)O)cn2)c1C [Example 24, (S)-1-((4-cyclopropyl-6-((3′-(4-cyclopropyl-5-(((tetrahydro-2H-pyran-4-yl)amino)methyl)picolinamido)-2,2′-dimethyl-[1,1′-biphenyl]-3-yl)carbamoyl)pyridin-3-yl)methyl)piperidine-2-carboxylic acid] | 52 | 0.91 |
| Cc1c(NC(=O)c2cc(C3CC3)c(CN3CC[C@H](O)C3)cn2)cccc1-c1cccc(NC(=O)c2cc(C3CC3)c(CN3CCCC[C@H]3C(=O)O)cn2)c1C [Example 14, (S)-1-((4-cyclopropyl-6-((3′-(4-cyclopropyl-5-(((S)-3-hydroxypyrrolidin-1-yl)methyl)picolinamido)-2,2′-dimethyl-[1,1′-biphenyl]-3-yl)carbamoyl)pyridin-3-yl)methyl)piperidine-2-carboxylic acid] | 8.2 | 1.76 |
| Cc1c(NC(=O)c2cc(C3CC3)c(CN[C@H](CO)C(=O)O)cn2)cccc1-c1cccc(NC(=O)c2cc(C3CC3)c(CN3CC(C)(O)C3)cn2)c1C [Example 36, ((4-cyclopropyl-6-((3′-(4-cyclopropyl-5-((3-hydroxy-3-methylazetidin-1-yl)methyl)picolinamido)-2,2′-dimethyl-[1,1′-biphenyl]-3-yl)carbamoyl)pyridin-3-yl)methyl)-D-serine] | 52 | 0.72 |
| CCOC(=O)[C@@H](CO)NCc1cnc(C(=O)Nc2cccc(-c3cccc(NC(=O)c4cc(C5CC5)c(CN[C@H](C)CO)cn4)c3C)c2C)cc1C1CC1 [Example 38-1, Ethyl ((4-cyclopropyl-6-((3′-(4-cyclopropyl-5-((((R)-1-hydroxypropan-2-yl)amino)methyl)picolinamido)-2,2′-dimethyl-[1,1′-biphenyl]-3-yl)carbamoyl)pyridin-3-yl)methyl)-D-serinate] | 219 | 4.77 |
| Cc1c(NC(=O)c2cc(C3CC3)c(CN[C@H](CO)C(=O)O)cn2)cccc1-c1cccc(NC(=O)c2cc(C3CC3)c(CN3CC[C@@H](O)C3)cn2)c1C [Example 53, ((4-cyclopropyl-6-((3′-(4-cyclopropyl-5-(((R)-3-hydroxypyrrolidin-1-yl)methyl)picolinamido)-2,2′-dimethyl-[1, 1′-biphenyl]-3-yl)carbamoyl)pyridin-3-yl)methyl)-D-serine] | 86.8 | 3.61 |
| CCOC(=O)[C@@H](CO)NCc1cnc(C(=O)Nc2cccc(-c3cccc(NC(=O)c4cc(C5CC5)c(CNCCO)cn4)c3C)c2C)cc1C1CC1 [Example 35-1, ethyl ((4-cyclopropyl-6-((3′-(4-cyclopropyl-5-(((2-hydroxyethyl)amino)methyl)picolinamido)-2,2′-dimethyl-[1,1′-biphenyl]-3-yl)carbamoyl)pyridin-3-yl)methyl)-D-serinate] | 231 | 3.03 |
| Cc1c(NC(=O)c2cc(C3CC3)c(CN3CCC[C@H]3CO)cn2)cccc1-c1cccc(NC(=O)c2cc(C3CC3)c(CN3CCCC[C@H]3C(=O)O)cn2)c1C [Example 27, (S)-1-((4-cyclopropyl-6-((3′-(4-cyclopropyl-5-(((S)-2-(hydroxymethyl)pyrolidin-1-yl)methyl)picolinamido)-2, 2′-dimethyl-[1,1′-biphenyl]-3-yl)carbamoyl)pyridin-3-yl)methyl)piperidine-2-carboxylic acid] | 27.3 | 2.62 |
| Cc1c(NC(=O)c2cc(C3CC3)c(CN3CC(C)(O)C3)cn2)cccc1-c1cccc(NC(=O)c2cc(C3CC3)c(CN3CCCC[C@H]3C(=O)O)cn2)c1C [Example 15, (S)-1-((4-cyclopropyl-6-((3′-(4-cyclopropyl-5-((3-hydroxy-3-methylazetidin-1-yl)methyl)picolinamido)-2,2′-dimethyl-[1,1′-biphenyl]-3-yl)carbamoyl)pyridin-3-yl)methyl)piperidine-2-carboxylic acid] | 15.1 | 0.68 |
| CCOC(=O)[C@@H](CO)NCc1cnc(C(=O)Nc2cccc(-c3cccc(NC(=O)c4cc(C5CC5)c(CN5CC(C)(O)C5)cn4)c3C)c2C)cc1C1CC1 [Example 36-1, ethyl ((4-cyclopropyl-6-((3′-(4-cyclopropyl-5-((3-hydroxy-3-methylazetidin-1-yl)methyl)picolinamido)-2,2′-dimethyl-[1,1′-biphenyl]-3-yl)carbamoyl)pyridin-3-yl)methyl)-D-serinate] | – | 64.3 |

Results, then the compound that gave them:

| EC50 [1] [nM] | IC50 [2] [nM] | Compound |
| --- | --- | --- |
| 8.7 | 0.91 | Cc1c(NC(=O)c2cc(C3CC3)c(CN[C@H]3CCOC3)cn2)cccc1-c1cccc(NC(=O)c2cc(C3CC3)c(CN3CCCC[C@H]3C(=O)O)cn2)c1C [Example 25, (S)-1-((4-cyclopropyl-6-((3′-(4-cyclopropyl-5-((((S)-tetrahydrofuran-3-yl)amino)methyl)picolinamido)-2,2′-dimethyl-[1,1′-biphenyl]-3-yl)carbamoyl)pyridin-3-yl)methyl)piperidine-2-carboxylic acid] |
| 49.3 | 1.69 | Cc1c(NC(=O)c2cc(C3CC3)c(CN[C@@H]3CCC[C@H]3O)cn2)cccc1-c1cccc(NC(=O)c2cc(C3CC3)c(CN3CCCC[C@H]3C(=O)O)cn2)c1C [Example 6, (S)-1-((4-cyclopropyl-6-((3′-(4-cyclopropyl-5-((((1R,2R)-2-hydroxycyclopentyl)amino)methyl)picolinamido)-2, 2′-dimethyl-[1,1′-biphenyl]-3-yl)carbamoyl)pyridin-3-yl)methyl)piperidine-2-carboxylic acid] |
| 6.8 | 1.07 | Cc1c(NC(=O)c2cc(C3CC3)c(CNCCO)cn2)cccc1-c1cccc(NC(=O)c2cc(C3CC3)c(CN3CCCC[C@H]3C(=O)O)cn2)c1C [Example 1, (S)-1-((4-cyclopropyl-6-((3′-(4-cyclopropyl-5-(((2-hydroxyethyl)amino)methyl)picolinamido)-2,2′-dimethyl-[1,1′-biphenyl]-3-yl)carbamoyl)pyridin-3-yl)methyl)piperidine-2-carboxylic acid] |
| 44.8 | 1.85 | Cc1c(NC(=O)c2cc(C3CC3)c(CN[C@@H](CO)C(=O)O)cn2)cccc1-c1cccc(NC(=O)c2cc(C3CC3)c(CN3CCCC[C@H]3C(=O)O)cn2)c1C [Example 32, (S)-1-((6-((3′-(5-((((S)-1-carboxy-2-hydroxyethyl)amino)methyl)-4-cyclopropylpicolinamido)-2,2′-dimethyl-[1,1′-biphenyl]-3-yl)carbamoyl)-4-cyclopropylpyridin-3-yl)methyl) piperidine-2-carboxylic acid] |
| 18.1 | 0.97 | Cc1c(NC(=O)c2cc(C3CC3)c(CN[C@H](CO)C(=O)O)cn2)cccc1-c1cccc(NC(=O)c2cc(C3CC3)c(CN3CCCC[C@H]3C(=O)O)cn2)c1C [Example 30, (S)-1-((6-((3′-(5-((((R)-1-carboxy-2-hydroxyethyl)amino)methyl)-4-cyclopropylpicolinamido)-2,2′-dimethyl-[1,1′-biphenyl]-3-yl)carbamoyl)-4-cyclopropylpyridin-3-yl)methyl)piperidine-2-carboxylic acid] |
